For series [1] the following is noted: at 25° C.; cited from earlier work.
A short description of series [2]: Draw solution degassing monitored by freezing point osmometry. The class given is physicochemical. The note with it: for temperature needed to degas: ambient atmospheric pressure, comparable kinetics. An excerpt:
To determine the relative performance of CHP and DMCA at different temperatures, draw solutions containing CHP or DMCA were recirculated through a segment of a heat exchanger featuring a high surface area honeycomb composition design with a temperature regulated fluid recirculated through the other path. Concentration data was collected with a freezing point osmometer by conventional techniques. Osmolality is an excellent predictor for the pressure needed to remove dissolved solids by filtration. Generally, 1 Osm/Kg corresponds to about 24.5 atm.
Upon addition of one atm of CO2 to the draw solution of Example 1, the oily, nonpolar CHP readily produced the corresponding polar ammonium bicarbonate acid-base salt. To test the degassing process, CHP-ammonium bicarbonate solutions were recirculated through a high surface area heat exchanger with a gear pump while the other loop of the heat exchanger was attached to a recirculating heat bath that was set to the desired temperature. The experiment progression was monitored with a freezing point osmometry. The degassing process was intended to reduce the solution osmotic pressure, reducing it to nothing or minimizing it for a low pressure RO treatment. The progress of the degassing reaction was measured by osmometry, which corresponds to osmotic pressure and can be rapidly obtained. For comparison, a draw solution including DMCA-H^+ was also investigated. In the case of DMCA at full concentration, it will start degassing at a temperature as low as 25° C., requiring viscosity measurements to be made at 15° C. However, DMCA requires nearly reflux conditions to fully remove the CO2.

For series [3] the following is noted: saturated NaCl solution; cited from earlier work.
The nature of series [4]: Forward osmosis flux experiments (FO mode) against pure water. The note with it: about 30 wt % CHP-H+ or 0.9 mol/kg NaCl against pure water, identical membranes. Here is the method: All flux experiments were conducted in “FO mode” with the membrane's active layer facing the feed solution. The process was allowed 1-5 minutes to equilibrate and the average of the next 10 minutes was reported as the “initial flux.”
Using identical membranes and test conditions, the water flux for CHP-H^+ was 10 kg/m^2 hr compared with 10 kg/m^2 hr for the NaCl solution.

A short description of series [5]: Freezing point depression osmometry: maximum concentration and osmotic pressure. The class given is physicochemical. The conditions noted are these: for maximum osmotic pressure (projected): full/high concentration, projected from dilute solution freezing point data. The procedure:
(§1) House deionized (DI) water was used in all experiments. CHP was obtained from Alfa Aesar and used as received. All equipment was used in accordance with manufacturer specifications unless stated otherwise. Freezing point depression osmometry was performed using an Advanced Instruments, Inc. Model 3250 Osmometer. Viscosity measurements were made using the falling bob method with a Cambridge Applied Systems VL4100 viscometer.
The diamond symbols indicate molality of amine and ammonium ions. The square symbols indicate the total species molality including amines, ammonium ions, and carbonate species. […] There is strong evidence that as osmotic pressures increase, there are diminishing returns in terms of kinetics for osmotic flux. For any osmotic pressure over 370 atm, the osmotic pressure of a saturated NaCl solution is likely to be less important than solute and solution properties like diffusion and viscosity.
The maximum osmotic pressures of different tertiary amines were determined by osmometry.

Series [6] in a line: Viscosity and density of the CHP-H+ draw solution. The class given is physicochemical. Here is the method: as §1
DI water (229.7 g) and CHP (221.2 g, 1.32 mol) were placed in a bottle equipped with a gas diffuser and exposed to a steady stream of carbon dioxide for 3 hours while being stirred with a magnetic stir bar. The resulting product was a clear homogeneous solution with a mass of 491.4 g, a solution viscosity of 44.0 cP at 15.0° C., and a density of 1.09 g/ml at 21° C. After exposure to the carbon dioxide, the solution contained CHP-H^+ (i.e., CHP in its polar form).

Several values for one entry are separate records, joined by “and”; a condition that tells them apart may be missing. Identical values can stand only once.

Consider `CN(C)C1CCCCC1` [DMCA, N,N-dimethylcyclohexylamine], for which the vapor pressure result in series [1] is “about 2.2 mm Hg”. Also, in series [2], the “temperature needed to degas” value was “about 95 °C”. In series [2] (full concentration), the “temperature at which degassing starts” value was 25 °C.

Regarding `[Cl-].[Na+]` [NaCl, reference compound], the osmotic pressure in series [3] is listed as 370 atm. Further, the “water flux (initial flux)” value in series [4] stood at 10 kg/m^2 hr.

Take `CN(C)C1CCCCC1.O=C(O)O` [DMCA-H^+, dimethylcyclohexylammonium bicarbonate]: the osmolality after degassing in series [2] (70° C., after 4-6 hours) is 2.4 Osm/Kg; in series [2] (95° C., after 6.5 hours), 0.2 Osm/Kg. In series [5], the “maximum osmotic pressure (projected)” value is recorded as ~835 atm.

Take `C1CCC(N2CCCCC2)CC1` [CHP, 1-cyclohexylpiperidine]: the vapor pressure entry in series [1] is recorded as “about 0.1 mm Hg”. The “temperature needed to degas” value in series [2] was “about 70 °C”. Besides, in series [5], the “amine:carbonic acid ratio” value was 1.00; the “maximum osmotic pressure (projected)” value was 536 atm and > 500 atm. Moreover, the maximum osmotic pressure result in series [5] (by osmometry, FIG. 4) was “greater than 250 atm”.

A word on the density: it is mass per unit of volume. Turning to `C1CCC(N2CCCCC2)CC1` [CHP-H^+], the osmolality after degassing in series [2] (70° C., after extended treatment) is given as 0.2 Osm/Kg; in series [2] (70° C., within 3 hours), 0.6 Osm/Kg. Moreover, the “water flux (initial flux)” value in series [4] was found to be 10 kg/m^2 hr. The compound further showed a solution viscosity in series [6] (draw solution of Example 1, at 15.0° C.) of 44.0 cP. In series [6] (draw solution of Example 1, at 21° C.), this compound came in with a density of 1.09 g/mL. In series [5], the “maximum osmotic pressure (projected)” value is recorded as “greater than 500 atm”.

The record behind these values is patent US9399194B2, “Methods for treating a liquid using draw solutions” (priority 2014, dated 2016).
